Data reported in US6465450B2, “Vanadium (IV) complexes containing catecholate ligand and having spermicidal activity” (Parker Hughes Institute, priority 1999, dated 2002).
Read-outs that look alike come from different tables or passages of the source.

What was measured:
human sperm [1] = assay: Time course of sperm immobilization by CASA; assay type: cell-based; settings: motile sperm incubated of each complex (footnote); motility by CASA at timed intervals
Description: […] At timed intervals (every 5 and 10 minutes) aliquots (4μl) were transferred to two 20 μm Microcell (Conception Technologies) chambers, and sperm motility was assessed by CASA.
Sperm Kinematic Parameters: For CASA, 4 μl each of sperm suspension was loaded into two 20 μm Microcell chambers placed onto a counting chamber at 37° C. At least 5-8 fieldsper chamber were scanned for analysis using a Hamilton Thorne Integrated Visual Optical System (IVOS) version 10 instrument (Hamilton Thorne Research Inc., Danvers, Mass.). Each field was recorded for 30 seconds. The Hamilton Thorne computer calibrations were set at 30 frames at a frame rate of 30 images/seconds. Other settings were as follows: minimum contrast 8; minimum size 6; low-size gate, 1.0; high-size gate, 2.9; low-intensity gate, 0.6; high-intensity gate, 1.4; phase-contrast illumination; low path velocity at 10 μm/seconds and threshold straightness at 80%; magnification factor, 1.95. The performance of the analyzer was periodically checked using the playback function. […]

human sperm [2] = assay: Sperm immobilization assay (SIA), 3 h incubation, motility by CASA; assay type: cell-based; settings: for EC50: motile fractions of human sperm incubated 3 h with increasing concentrations, 37° C., read-out: EC50 (concentration of compound required for 50% sperm motility loss)
Description: Sperm Immobilization Assay (SIA): To evaluate the spermicidal effects of complexes 1-4 a highly motile fraction of pooled donor sperm(n=5) was prepared by discontinuous (90-45%) Percoll gradient (Conception Technologies, San Diego, Calif.) centrifugation and the “swim-up” method as described previously (Aitken et al., 1989, Biol. Reprod. 40:183-197). All donor specimens were obtained after informed consent and in compliance with the guidelines of the Hughes Institutional Review Board. Motile sperm (≧10×10^6/ml) were suspended in 1 ml of Biggers, Whitten, and Whittingam's medium (BWW) containing 0.3% BSA (fraction V; Sigma Chemical Co., St. Louis, Mo.) in the presence and absence of serial 2-fold dilutions of test substance (250 μM -1.9 μM) in 0.25% dimethyl sulfoxide (DMSO). For each experiment, fresh stock solutions (100 mM) of vanadium compounds were prepared in DMSO. A corresponding volume of DMSO […] was added to control sperm suspension. After 3hours of incubation at 37° C., the percentage of motile sperm was evaluated by computer-assisted sperm motion analysis (CASA) as described previously (Aitken et al., 1989, Supra). The percentages of motilities were compared with those of sham-treated control suspensions of motile sperm. The spermicidal activity of test compounds was expressed as the EC50 values (the final concentration of the compound in medium that decreases the proportion of motile sperm by 50%).
Sperm Kinematic Parameters: For CASA, 4 μl each of sperm suspension was loaded into two 20 μm Microcell chambers placed onto a counting chamber at 37° C. At least 5-8 fieldsper chamber were scanned for analysis using a Hamilton Thorne Integrated Visual Optical System (IVOS) version 10 instrument (Hamilton Thorne Research Inc., Danvers, Mass.). Each field was recorded for 30 seconds. The Hamilton Thorne computer calibrations were set at 30 frames at a frame rate of 30 images/seconds. Other settings were as follows: minimum contrast 8; minimum size 6; low-size gate, 1.0; high-size gate, 2.9; low-intensity gate, 0.6; high-intensity gate, 1.4; phase-contrast illumination; low path velocity at 10 μm/seconds and threshold straightness at 80%; magnification factor, 1.95. The performance of the analyzer was periodically checked using the playback function.
The attributes of sperm kinematic parameters evaluated included numbers of motile (MOT) and progressively (PRG) motile sperm; curvilinear velocity (VCL; a measure of the total distance traveled by a given sperm during the acquisition divided by the time elapsed); average path velocity (VAP; the spatially averaged path that eliminates the wobble of the sperm head), straight-line velocity (VSL; the straight-line distance from beginning to end of track divided by time taken), beat-cross frequency (BCF; frequency of lateral head displacement), (ALH; the mean width of sperm head oscillation), and the derivatives, straightness (STR=VSL divided by VAP×100), linearity (LIN=VSL divided by VCL×100, departure of sperm track from a straight line). Data from each individual cell track were recorded and analyzed. At least 200 sperm were analyzed for each aliquot sampled.
A non-linear regression analysis was used to find the EC50 and T1/2 values (the concentration of the compound, and the time required for 50% sperm motility loss, respectively) from the concentration effect curves.

[3] = Stability of the complexes as solids or in solution (cyclic voltammetry and UV-vis spectroscopy)
Description: UV/Vis Spectra: A UV/vis polarizer attachment was used for the polarization experiments. UV-vis spectra were recorded in a quartz cell or cuvette on a Beckman Model DU 7400 spectrophotometer and the spectral bands were registered in the 200-800 nm range.
Electrochemical Measurements: Electrochemical measurements were performed on a Bioanalytical Systems B/W 100b electrochemical analyzer with internal resistance (IR) compensation. The cyclic voltammograms taken in acetonitrile were obtained in a 0.1 M Bu4NPF6 (TABP) electrolyte solution with a 0.1 M Ag/AgNO3 reference electrode, a Platinum Disc working electrode, and a platinum wire auxiliary electrode. Solutions were purged with nitrogen: and scanned at 200 mV/s. Aqueous cyclic voltammograms were taken in a standard PBS solution, using a Ag/AgCl reference electrode, a glassy carbon working electrode, and a platinum wire auxiliary electrode. Solutions were purged with nitrogen and scanned at 200 mV/s. All potentials were referenced to the ferrocene-ferrocinium couple (E1/2=0.185 V vs Ag/AgCl in PBS).

Row | Compound | T1/2 (time required for 50% sperm motility loss) (human sperm [1]) | EC50 (human sperm [2]) | further results
1 | [O-]c1ccccc1[O-].[V+2].c1cc[cH-]c1.c1cc[cH-]c1 [Cp2V(cat) (2), Vanadocene catecholate.] | 5.8 min | 2.4 µM | 
2 | [O-]c1c([O-])c(Cl)c(Cl)c(Cl)c1Cl.[V+2].c1cc[cH-]c1.c1cc[cH-]c1 [Cp2V(catCl4) (1), Vanadocene tetrachloro catecholate] |  | > 250 µM | solubility in water: not soluble in water; t1/2 (stability) ([3]; in acetonitrile, air, by cyclic voltammetry and UV-vis spectroscopy): about 2 hr.; spermicidal activity in words (human sperm [2]; in the concentration ranges examined): no spermacidal activity
3 | CC(C)(C)c1cc([O-])c([O-])c(C(C)(C)C)c1.[V+4].c1cc[cH-]c1.c1cc[cH-]c1 [Cp2V(dbcat) (5), Vanadocene 1,3 ditertbutyl catecholate] |  |  | t1/2 (stability) [3]: about 2 min.
4 | Vanadocene 1,3-diisopropyl catecholate [Cp2V(dpcat) (4)] |  | 0.29 µM | 
5 | Vanadocene mono-tertbutyl catecholate [Cp2V(mbcat) (3)] | 5.4 min | 0.1 µM | 
